Measured values: US20260137676A1 (priority 2022, published 2026)
Where two headings read alike, the source gives them in different places.

Key:
[1] = system: SD rats; test: Anesthetic effect (minimum effective anesthetic dose, LORR) after single tail vein injection in rats; assay type: in vivo
Procedure: The dose at which the LORR first occur was determined as the minimum effective anesthetic dose. The minimum effective anesthetic dose is further classified as: A≤5 mg/kg; 5 mg/kg<B≤10 mg/kg; 10 mg/kg<C≤20 mg/kg; D>20 mg/kg in this invention.
The Up and down method was used to determine the ED50 of the compound causing the LORR. […] After observing five consecutive consistent directional changes in LORR occurrence and recovery, the ED50 was calculated using the Dixon-Mood formula. After determining the ED50, the onset time, duration of anesthesia, and emergence time of anesthesia were determined at an injection dose of 2ED50.
In the above experiments, in addition to recording the dose at which the LORR occurred, the onset time and emergence time of anesthesia, the duration of the LORR, and the duration of sedative effects could also be recorded. Meanwhile, circulatory effects experiments can be added to observe the effects of the compound on circulation and respiration in rats.

[2] = system: SD rats; settings: tail vein, ratio of minimum lethal dose to minimum effective anesthetic dose
Procedure: SD rats were used, with a single intravenous injection via the tail vein (administration rate of 0.02 ml/s and administration volume of 0.5-1.0 ml per 100 g body weight) in the experiment. The initial dose of the test compound started at 4ED50, and the actual administration dose was calculated based on the body weight measured before the test for each animal. The increase or decrease in subsequent doses was determined based on the results of the experimental animals (whether death occurred). The dose at which death first occurred was determined as the minimum lethal dose. […] The approximate therapeutic index is further classified as: A when the index is ≥5; B when the index is <5 but ≥3; and C when the index is <3.

[3] = Solubility determination of salt forms of the compounds (10 mg, ultrapure water added incrementally); assay type: physicochemical; settings: 10 mg of the salt form, 25° C.±2° C., class = water volume used
Procedure: A weighed amount of 10 mg of the compound's salt form was placed in a vessel at 25° C.±2° C. Ultrapure water was added incrementally. The mixture was vigorously shaken for 30 seconds every 5 minutes and observed for 30 minutes. When no undissolved particles or droplets remained in the test system, the water solubility of the salt form was recorded according to the following criteria: • A: Water volume used is less than 0.1 mL; • B: Water volume used is greater than or equal to 0.1 mL and less than 1.0 mL; • C: Water volume used is greater than or equal to 1.0 mL and less than 5.0 mL.

[4] = assay type: physicochemical
Procedure: Compound A6S (1 eq) was dissolved in Et2O (2 mL) at room temperature, and the corresponding acid (2 eq) was dissolved in Et2O (NO.1-NO.4) or MeOH (NO.5-NO.10). The above acid solution was slowly added to the reaction system containing Compound A6S using a syringe. NO.1-NO.3 was mixed and stirred at room temperature for 1 hour, and NO.5-NO.10 was mixed and stirred at room temperature for 16 hours. The mixture was filtered under suction to get the solid, then the solid was washed with Et2O, and dried to obtain the corresponding salt form of Compound A6S. Then, the solubility of each salt form was tested in ultrapure water.

[5] = well-known to those skilled in the art; cited from earlier work
[6] = intravenous injection; compared to propofol; cited from earlier work
[7] = vehicle DMSO: A3 31.8%, A14 66.7%, A17 79.2%, A21S 66.7%, A23 60%, A24 82.8%
[8] = vehicle DMSO: A3 31.8%, A14 66.7%, A17 79.2%, A21S 66.7%, A23 60%, A24 82.8%, A25S 70%
[9] = vehicle Pure water, sulfate salts

Row | Structure (SMILES) | Minimal effective anesthetic dose [1, 8] | Solubility [3] | Minimal effective anesthetic dose [1, 9] | Onset time [1, 9] | Righting Reflex Duration [1, 9] | Sedation Duration [1, 9] | also measured
1 | COC(=O)CC(=O)N1CCN(c2cc(C(C)C)c(O)c([C@H](C)C3CC3)c2)CC1 [Compound A3] | C (10 mg/kg<C≤20 mg/kg) | C (C: Water volume used is greater than or equal to 1.0 mL and less than 5.0 mL) |  |  |  |  | Onset time [1, 7]: 0.37 to 0.52 min; Righting Reflex Duration [1, 7]: 1.02 to 2.08 min; Sedation Duration [1, 7]: 6.65 to 8.50 min; Approximate therapeutic index ([2]; vehicle DMSO: A3 31.8%, A17 79.2%): B (B when the index is <5 but ≥3)
2 | COC(=O)[C@@H](C)N1CCN(c2cc(C(C)C)c(O)c([C@H](C)C3CC3)c2)CC1 [Compound A6R] |  |  | A (A≤5 mg/kg) | 0.15 to 0.70 min | 1.72 to 3.82 min | 7.02 to 14.77 min | 
3 | COC(=O)[C@H](C)N1CCN(c2cc(C(C)C)c(O)c([C@H](C)C3CC3)c2)CC1 [Compound A6S] |  |  | B (5 mg/kg<B≤10 mg/kg) | 0.47 to 0.73 min | 1.08 to 5.67 min | 7.93 to 15.12 min | Salt formation (Yes/No) ([4]; A6S with Benzenesulfonic acid (NO.6)): Yes; Salt formation (Yes/No) ([4]; A6S with Hydrochloric acid (NO.1)): Yes; Salt formation (Yes/No) ([4]; A6S with Maleic acid (NO.8)): Yes; Salt formation (Yes/No) ([4]; A6S with Methanesulfonic acid (NO.3)): Yes; Salt formation (Yes/No) ([4]; A6S with Oxalic acid dihydrate (NO.7)): Yes; Salt formation (Yes/No) ([4]; A6S with Phosphoric acid (NO.4)): Yes; Salt formation (Yes/No) ([4]; A6S with Sulfuric acid (NO.2)): Yes; Salt formation (Yes/No) ([4]; A6S with p-Toluenesulfonic acid hydrate (NO.5)): Yes
4 | CC(C)c1cc(N2CCN(CCO)CC2)cc([C@H](C)C2CC2)c1O [Compound A7] |  | B (B: Water volume used is greater than or equal to 0.1 mL and less than 1.0 mL) |  |  |  |  | 
5 | CC(C)c1cc(N2CCN(CC(=O)OC3COC3)CC2)cc([C@H](C)C2CC2)c1O [Compound A8] |  | B (B: Water volume used is greater than or equal to 0.1 mL and less than 1.0 mL) |  |  |  |  | 
6 | COC(=O)CN1CCN(c2cc(C(C)C)c(O)c([C@H](C)C3CC3)c2)CC12CC2 [Compound A11] |  |  | C (10 mg/kg<C≤20 mg/kg) | 0.12 to 0.27 min | 0.68 to 3.12 min | 12.05 to 14.53 min | 
7 | COC(=O)CN1CC2CCC(C1)N2c1cc(C(C)C)c(O)c([C@H](C)C2CC2)c1 [Compound A12] |  | A (A: Water volume used is less than 0.1 mL) | C (10 mg/kg<C≤20 mg/kg) | 0.50 to 0.77 min | 1.22 to 7.40 min | 9.90 to 34.25 min | Approximate therapeutic index ([2]; vehicle Pure water): A (A when the index is ≥5)
8 | CC(C)c1cc(N2CCN(CC(=O)OC(C)(C)C)CC2)cc([C@H](C)C2CC2)c1O [Compound A13] |  | A (A: Water volume used is less than 0.1 mL) |  |  |  |  | 
9 | CC(C)c1cc(N2CCN(CC(=O)OC(C)(C)C)CC2)cc([C@H](C)C2CC2)c1OCC(=O)OC(C)(C)C [Compound A14] | C (10 mg/kg<C≤20 mg/kg) |  |  |  |  |  | Onset time [1, 7]: 0.18 to 1.63 min; Righting Reflex Duration [1, 7]: 1.95 to 11.67 min; Sedation Duration [1, 7]: 19.40-28.45- min
10 | CC(C)c1cc(N2CCN(CC(=O)O)CC2)cc([C@H](C)C2CC2)c1O [Compound A15] |  | A (A: Water volume used is less than 0.1 mL) | D (D>20 mg/kg) |  |  |  | 
11 | CC(C)c1cc(N2CCN(CC(=O)OC(C)(C)C)CC2)cc(C(C)C)c1O [Compound A17] | A (A≤5 mg/kg) |  |  |  |  |  | Onset time [1, 7]: 0.15 to 0.63 min; Righting Reflex Duration [1, 7]: 3.67 to 9.38 min; Sedation Duration [1, 7]: 24.42 to 35.32 min
12 | CC(C)c1cc(N2CCN(CC(=O)OC(C)(C)C)C3(CC3)C2)cc([C@H](C)C2CC2)c1O [Compound A18] |  |  | B (5 mg/kg<B≤10 mg/kg) | 0.23 to 0.98 min | 3.02 to 19.25 min | 16.47 to 35.57 min | 
13 | CC(C)c1cc(N2CCN([C@@H](C)C(=O)OC(C)(C)C)CC2)cc([C@H](C)C2CC2)c1O [Compound A19S] |  |  | B (5 mg/kg<B≤10 mg/kg) | 0.70 to 0.98 min | 2.21 to 5.57 min | 14.55 to 21.30 min | 
14 | COC(=O)[C@H](C)N1CCN(c2cc(C(C)C)c(O)c(C(C)C)c2)CC1 [Compound A20S] |  |  | B (5 mg/kg<B≤10 mg/kg) | 0.18 to 0.43 min | 2.18 to 7.48 min | 15.75 to 23.72 min | 
15 | CC(C)c1cc(N2CCN([C@@H](C)C(=O)OC(C)(C)C)CC2)cc(C(C)C)c1O [Compound A21S] | B (5 mg/kg<B≤10 mg/kg) |  |  |  |  |  | Onset time [1, 7]: 0.25 to 0.42 min; Righting Reflex Duration [1, 7]: 12.02 to 22.80 min; Sedation Duration [1, 7]: 28.72 to 56.33 min
16 | CC[C@@H](C(=O)OC)N1CCN(c2cc(C(C)C)c(O)c([C@H](C)C3CC3)c2)CC1 [Compound A22S] |  | A (A: Water volume used is less than 0.1 mL) |  |  |  |  | 
17 | COC(=O)C(C(C)C)N1CCN(c2cc(C(C)C)c(O)c([C@H](C)C3CC3)c2)CC1 (stereo partly shown) [Compound A23] | B (5 mg/kg<B≤10 mg/kg) | C (C: Water volume used is greater than or equal to 1.0 mL and less than 5.0 mL) |  |  |  |  | Onset time [1, 7]: 0.20 to 0.22 min; Righting Reflex Duration [1, 7]: 4.93 to 15.08 min; Sedation Duration [1, 7]: 30.48 to 39.13 min
18 | COC(=O)C(C1CC1)N1CCN(c2cc(C(C)C)c(O)c([C@H](C)C3CC3)c2)CC1 (stereo partly shown) [Compound A24] | B (5 mg/kg<B≤10 mg/kg) | C (C: Water volume used is greater than or equal to 1.0 mL and less than 5.0 mL) |  |  |  |  | Onset time [1, 7]: 0.17 to 0.18 min; Righting Reflex Duration [1, 7]: 5.53 to 9.67 min; Sedation Duration [1, 7]: 19.33 to 38.80 min
19 | COC(=O)[C@H](C)[N+]1(C)CCN(c2cc(C(C)C)c(O)c([C@H](C)C3CC3)c2)CC1 [Compound A25S] | D (D>20 mg/kg) |  |  |  |  |  | 
20 | CCOC(=O)C(C1CC1)N1CCN(c2cc(C(C)C)c(O)c([C@H](C)C3CC3)c2)CC1 (stereo partly shown) [Compound A26] |  | A (A: Water volume used is less than 0.1 mL) | A (A≤5 mg/kg) | 0.42 to 0.43 min | 7.03 to 10.48 min | 14.75 to 21.28 min | 
21 | CC(C)c1cccc(C(C)C)c1O [Propofol, reference compound] |  |  |  |  |  |  | Approximate therapeutic index ([2]; vehicle Lipid emulsion): B (B when the index is <5 but ≥3); water solubility [5]: insoluble in water
22 | CC(C)c1cccc([C@H](C)C2CC2)c1O [ciprofol] |  |  |  |  |  |  | water solubility [5]: insoluble in water
23 | CC(C)c1cccc(C(C)C)c1OCOP(=O)(O)O [fospropofol disodium, Fospropofol disodium] |  |  |  |  |  |  | Onset time [6]: up to 2.9 minutes
